Positions of bridges follow the written chain, without caps; N, C: chain ends. Residues, ends and D or L forms follow the SMILES beside them.
Species: Rattus norvegicus
Assay: Adenylyl cyclase stimulating activity expressed as effective dose was measured in rat osteosarcoma 17/2 cells
Type: functional, cell-based

Molecule	EC50
CC[C@H](C)[C@H](NC(=O)[C@H](CCC(=O)O)NC(=O)[C@H](CO)NC(=O)[C@@H](NC(=O)[C@@H](N)CO)C(C)C)C(=O)N[C@@H](CCC(N)=O)C(=O)N[C@@H](CC(C)C)C(=O)N[C@@H](CCSC)C(=O)N[C@@H](Cc1c[nH]cn1)C(=O)N[C@@H](CC(N)=O)C(=O)N[C@@H](CC(C)C)C(=O)NCC(=O)N[C@@H](CCCCN)C(=O)N[C@@H](Cc1c[nH]cn1)C(=O)N[C@@H](CC(C)C)C(=O)N[C@@H](CC(N)=O)C(=O)N[C@@H](CO)C(=O)N[C@@H](CCSC)C(=O)N[C@@H](CCC(=O)O)C(=O)N[C@@H](CCCN=C(N)N)C(=O)N[C@H](C(=O)N[C@@H](CCC(=O)O)C(=O)N[C@@H](Cc1c[nH]c2ccccc12)C(=O)N[C@@H](CC(C)C)C(=O)N[C@@H](CCCN=C(N)N)C(=O)N[C@@H](CCCCN)C(=O)N[C@@H](CC(C)C)C(=O)N[C@@H](CC(C)C)C(=O)N[C@@H](CCC(N)=O)C(=O)N[C@@H](CC(=O)O)C(=O)N[C@H](C(N)=O)C(C)C)C(C)C	11.5 nM
CC[C@H](C)[C@H](NC(=O)[C@H](CCC(=O)O)NC(=O)[C@H](CO)NC(=O)[C@@H](NC(=O)[C@@H](N)CO)C(C)C)C(=O)N[C@@H](CCC(N)=O)C(=O)N[C@@H](CC(C)C)C(=O)N[C@@H](CCSC)C(=O)N[C@@H](Cc1c[nH]cn1)C(=O)N[C@@H](CC(N)=O)C(=O)N[C@@H](CC(C)C)C(=O)NCC(=O)N[C@@H](CCCCN)C(=O)N[C@@H](Cc1c[nH]cn1)C(=O)N[C@@H](CC(C)C)C(=O)N[C@@H](CC(N)=O)C(=O)N[C@@H](CO)C(=O)N[C@@H](CCSC)C(=O)N[C@@H](CCC(=O)O)C(=O)N[C@@H](CCCN=C(N)N)C(=O)N[C@H](C(=O)N[C@@H](CCC(=O)O)C(=O)N[C@@H](Cc1c[nH]c2ccccc12)C(=O)N[C@@H](CC(C)C)C(=O)N[C@@H](CCCN=C(N)N)C(=O)N[C@@H](CCCCN)C(=O)N[C@H]1CCCCNC(=O)C[C@@H](C(=O)N[C@H](C(N)=O)C(C)C)NC(=O)[C@H](CCC(N)=O)NC(=O)[C@H](CC(C)C)NC1=O)C(C)C	40.3 nM
CC[C@H](C)[C@H](NC(=O)[C@H](CCC(=O)O)NC(=O)[C@H](CO)NC(=O)[C@@H](NC(=O)[C@@H](N)CO)C(C)C)C(=O)N[C@@H](CCC(N)=O)C(=O)N[C@@H](CC(C)C)C(=O)N[C@@H](CCSC)C(=O)N[C@@H](Cc1c[nH]cn1)C(=O)N[C@@H](CC(N)=O)C(=O)N[C@@H](CC(C)C)C(=O)NCC(=O)N[C@@H](CCCCN)C(=O)N[C@@H](Cc1c[nH]cn1)C(=O)N[C@@H](CC(C)C)C(=O)N[C@@H](CC(N)=O)C(=O)N[C@@H](CO)C(=O)N[C@@H](CCSC)C(=O)N[C@@H](CCC(=O)O)C(=O)N[C@@H](CCCN=C(N)N)C(=O)N[C@H](C(=O)N[C@H]1CCC(=O)NCCCC[C@@H](C(=O)N[C@@H](CC(C)C)C(=O)N[C@@H](CC(C)C)C(=O)N[C@@H](CCC(N)=O)C(=O)N[C@@H](CC(=O)O)C(N)=O)NC(=O)[C@H](CCCN=C(N)N)NC(=O)[C@H](CC(C)C)NC(=O)[C@H](Cc2c[nH]c3ccccc23)NC1=O)C(C)C (H-SVSEIQLMHNLGKHLNSMERVEWLRKLLQD-NH2; lactam 22-26)	20 nM
CC[C@H](C)[C@H](NC(=O)[C@H](CCC(=O)O)NC(=O)[C@H](CO)NC(=O)[C@@H](NC(=O)[C@@H](N)CO)C(C)C)C(=O)N[C@@H](CCC(N)=O)C(=O)N[C@@H](CC(C)C)C(=O)N[C@@H](CCSC)C(=O)N[C@@H](Cc1c[nH]cn1)C(=O)N[C@@H](CC(N)=O)C(=O)N[C@@H](CC(C)C)C(=O)NCC(=O)N[C@@H](CCCCN)C(=O)N[C@@H](Cc1c[nH]cn1)C(=O)N[C@@H](CC(C)C)C(=O)N[C@@H](CC(N)=O)C(=O)N[C@@H](CO)C(=O)N[C@@H](CCSC)C(=O)N[C@@H](CCC(=O)O)C(=O)N[C@@H](CCCN=C(N)N)C(=O)N[C@H](C(=O)N[C@H]1CCC(=O)NCCCC[C@@H](C(=O)N[C@@H](CC(C)C)C(=O)N[C@@H](CC(C)C)C(=O)N[C@@H](CCC(N)=O)C(=O)N[C@@H](CC(=O)O)C(=O)N[C@H](C(N)=O)C(C)C)NC(=O)[C@H](CCCN=C(N)N)NC(=O)[C@H](CC(C)C)NC(=O)[C@H](Cc2c[nH]c3ccccc23)NC1=O)C(C)C (H-SVSEIQLMHNLGKHLNSMERVEWLRKLLQDV-NH2; lactam 22-26)	3.3 nM
H-SVSEIQLMHNLGKHLNSMERVEWLRKKLQD-NH2	20 nM
H-SVSEIQLMHNLGKHLNSMERVEWLRKLLQD-NH2	20 nM
